From patent publication US20180369327A1, “METHOD FOR TREATING OR PREVENTING OSTEOARTHRITIS” (Dong-A University Research Foundation for Industry-Academy …, priority 2017, published 2018)

Tests used:
[1] = tested on: rat articular chondrocytes; assay: Total cytosol FFA content measurement; assay type: cell-based; settings: cells treated with 1.6 mM palmitate and 0.4 mM oleate; n=4
Description: Cell were collected after treatment with trypsin (0.2% trypsin, 0.02% EDTA and 0.2% glucose in PBS) and pelleted by centrifugation (200×g for 5 min at 4° C.). Cell pellet was resuspended in ice-cold hypotonic lysis medium containing 20 mM Tris-HCl, pH 7.4 and 1 mM EDTA. Cells were homogenized with a Dounce homogenizer and then centrifuged (800×g for 5 min at 4° C.). The post-nuclear supernatant fraction was ultra-centrifuged ([…] for 5 min at 4° C.) using Beckman Table-top ultracentrifuge. LD fraction with the distinct white band on the preparation was removed with a pipetman and LD-free cytosol was used for FFA measurement. Cytosol FFA levels were measured using a commercial free fatty acid quantification kit from Abcam (ab65341).

[2] = tested on: rat articular chondrocytes; assay: Cell viability assay (automated trypan blue exclusion); assay type: cell-based; settings: n=4
Description: Rat articular chondrocytes for primary culture were isolated from knee joint cartilage slices by enzymatic digestion for 1 h with 0.2% type II collagenase (381 units/mg) in DMEM. After the isolated cells were collected by brief centrifugation, they were resuspended in DMEM supplemented with 10% (v/v) FBS, […] streptomycin and 50 units/ml penicillin (Gibco). The cells were plated on culture dishes at a density of 5×10^4 cells/cm^2. The medium was replaced every 2 days, and they reached confluence after approximately 5 days in culture. In each experiment, the cells from three animals were pooled and analyzed three times.
FFA were dissolved in absolute ethanol at a concentration of 500 mM and diluted to final concentrations of FFAs with the appropriate concentration of 1% (w/v) FFA-free BSA. Controls were incubated with equal concentrations of FFA-free BSA containing ethanol. To examine the effect of several chemicals, cells were pretreated with 150 μg/mL DRB or 30 μM cilostazol for 24 h or 25 ng/ml TNF-α for 3 h before FFA treatment.
siRNA transfection or combination treatment with FFAs. Transfection of siRNA was performed with the use of siPORT Amine and Opti-MEM media. Cells grown to a confluence of 40% to 50% in six-well plates were transfected with 100 nM final siRNA concentration per well. Transfection mixture was added to each well, and incubation occurred for 4 h. Then 2 ml of growth medium was added, and cells were incubated for another 20 h. After siRNA transfection medium was removed, each well was washed in PBS solution. Cells were treated with FFAs for 24 hours.
Recombinant adenoviral STAMP2 was prepared as described previously34. Cells (1×10^7) were infected with recombinant adenoviral STAMP2 at multiplicities of infection (MOI) of 500, 1000 and 1500 to the medium.
An automated trypan blue exclusion assay was undertaken. Total cells and trypan bluestained (i.e., nonviable) cells were counted, and the percentage of nonviable cells was calculated using the Vi-Cell cell counter (Beckman Coulter, Miami, Fla., USA).

[3] = tested on: FSP27; assay: Immunohistochemistry of cartilage, FSP27-positive cells, HFD-induced OA mouse model; assay type: in vivo; design: reference not given here; settings: mice fed HFD, cilostazol 30 mg/kg/day orally 10 weeks; n=10
Description: HFD-induced OA mouse model. Sixty mice were fed a normal chow diet for one week and then mice were fed an HFD or a SD for 25 weeks. Ten mice from each diet were used histologically examine the effect of high fat diet. Forty mice were used to examine the effect of cilostazol. Mice fed a SD or HFD for 15 weeks were orally administered cilostazol at concentrations of 30 mg/kg/day for additional 10 weeks. SD+vehicle mice (n=10) were fed a SD and received DMSO. SD+cilostazol mice (n=10) were fed a SD and received cilostazol. HFD+vehicle mice (n=10) were fed a HFD and received DMSO. HFD+cilostazol mice (n=10) were fed a HFD and received cilostazol. Immunohistochemical observation and analysis. Tissue sections were incubated in 1:70-diluted goat serum solution for 30 minutes at room temperature, and then for 2 hours with 1:100-diluted primary antibody at room temperature. Next, sections were incubated with secondary antibody for 1 hour at 37° C. and developed using ABC complex. […] Histological images were observed and analyzed using a Aperio ScanScope® CS system. Total numbers of positive for […]27 and STAMP2 in four fields per animal were counted by an observer blinded to the experiment and the percentage of positive cells were calculated.

[4] = tested on: rat articular chondrocytes; assay: DNA hypoploidy / cell cycle analysis by flow cytometry (apoptosis); assay type: cell-based; settings: 30 μM cilostazol, 1.5 mM oleate; n=4
Description: Rat articular chondrocytes for primary culture were isolated from knee joint cartilage slices by enzymatic digestion for 1 h with 0.2% type II collagenase (381 units/mg) in DMEM. After the isolated cells were collected by brief centrifugation, they were resuspended in DMEM supplemented with 10% (v/v) FBS, […] streptomycin and 50 units/ml penicillin (Gibco). The cells were plated on culture dishes at a density of 5×10^4 cells/cm^2. The medium was replaced every 2 days, and they reached confluence after approximately 5 days in culture. In each experiment, the cells from three animals were pooled and analyzed three times. FFA were dissolved in absolute ethanol at a concentration of 500 mM and diluted to final concentrations of FFAs with the appropriate concentration of 1% (w/v) FFA-free BSA. Controls were incubated with equal concentrations of FFA-free BSA containing ethanol. […] Cells were washed twice with PBS, and fixed with cold 70% ethanol at 4° C. overnight. The fixed cells were pelleted and ethanol was removed by washing twice with PBS containing 1% bovine serum albumin (BSA). The cells were resuspended in 1 ml of PBS containing 11 Kunitz U/ml RNase A, incubated at 4° C. for 30 min and washed once with BSAPBS. Cells were resuspended in PI solution (50 μg/ml) and incubated at 37° C. for 30 min in dark. […]

Structure (SMILES): O=C1CCc2cc(OCCCCc3nnnn3C3CCCCC3)ccc2N1 [cilostazol]
- FFA level in the cytosol [1]: significantly decreased the FFA level in the cytosol
- influence on lipotoxicity of oleate/palmitate combination (viability) ([2]; 0.4 mM oleate with 0.6 or 1.6 mM palmitate): reciprocal influences on lipotoxicity
- effect on oleate-induced cell death (viability) ([2]; cilostazol pre-treatment, 1.5 mM oleate): prevented 1.5 mM oleate-induced cell death
- population of FSP27-positive cells [3]: significantly increased
- effect on oleate-induced apoptosis (histograms) [4]: prevented 1.5 mM oleate-induced apoptosis
